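Briefly, cells in 96-well plates were exposed to five compound concentrations for 48 h, and endpoints were estimated by linear interpolation. Abbreviation: GI50, concentration required for 50% inhibition of growth.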 Activity calls are given as the source filed them. Cut-off read from the data, not from the text of the source: active = GI50 up to about 1.1 µM and inactive = higher.
Assays:
Assay in all cases: DTP human tumour cell line panel, 48 h
[1] = test system: OVCAR-4
[2] = test system: DMS-273
[3] = test system: SK-MEL-28
[4] = test system: RXF 393
[5] = test system: OVCAR-5
[6] = test system: DLD-1
[7] = test system: ACHN
[8] = test system: KM-20L2
[9] = test system: CAKI-1
[10] = test system: SK-MEL-2
[11] = test system: A498
[12] = test system: SF-539
[13] = test system: RXF 631
[14] = test system: HCT-116
[15] = test system: IGROV-1
[16] = test system: SW-620
[17] = test system: NCI-H226
[18] = test system: K562
[19] = test system: TK-10
[20] = test system: A549
[21] = test system: EKVX
[22] = test system: SF-295
[23] = test system: CCRF-CEM
[24] = test system: SF-268
[25] = test system: SK-OV-3
[26] = test system: RPMI-8226
[27] = test system: HOP-92
[28] = test system: SNB-78
[29] = test system: U-251
[30] = test system: SN12C
[31] = test system: HCC 2998
[32] = test system: SK-MEL-5
[33] = test system: SR
[34] = test system: HT-29
[35] = test system: SNB-19
[36] = test system: XF498
[37] = test system: HL-60
[38] = test system: LOX IMVI
[39] = test system: SNB-75
[40] = test system: KM12
[41] = test system: DMS-114
[42] = test system: UO-31
[43] = test system: M19-MEL
[44] = test system: NCI-H23
[45] = test system: UACC-62
[46] = test system: OVCAR-8
[47] = test system: NCI-H460
[48] = test system: COLO 205
[49] = test system: UACC-257
[50] = test system: HOP-62
[51] = test system: HCT-15
[52] = test system: MOLT-4
[53] = test system: Malme-3M
[54] = test system: HOP-18
[55] = test system: NCI-H522
[56] = test system: OVCAR-3
[57] = test system: M14
[58] = test system: 786-0

For `Nc1nnc(N)n1NC(=O)C(=O)Nc1ccc([N+](=O)[O-])cc1`, the GI50 [1] was > 100 µM (inactive), the GI50 [2] was > 100 µM (inactive) and the GI50 [3] was > 100 µM (inactive). For the same molecule, the GI50 [4] was > 100 µM (inactive), the GI50 [5] was > 100 µM (inactive) and the GI50 [6] was > 100 µM (inactive). For the same molecule, the GI50 [7] was > 100 µM (inactive), the GI50 [8] was > 100 µM (inactive) and the GI50 [9] was > 100 µM (inactive). For the same molecule, the GI50 [10] was > 100 µM (inactive), the GI50 [11] was > 100 µM (inactive) and the GI50 [12] was > 100 µM (inactive). For the same molecule, the GI50 [13] was > 100 µM (inactive), the GI50 [14] was > 100 µM (inactive) and the GI50 [15] was > 100 µM (inactive). For the same molecule, the GI50 [16] was > 100 µM (inactive), the GI50 [17] was > 100 µM (inactive) and the GI50 [18] was 98.9 µM (inactive). The GI50 [19] was > 100 µM (inactive), the GI50 [20] was > 100 µM (inactive) and the GI50 [21] was > 100 µM (inactive). For the same molecule, the GI50 [22] was > 100 µM (inactive), the GI50 [23] was > 100 µM (inactive) and the GI50 [24] was > 100 µM (inactive). For the same molecule, the GI50 [25] was > 100 µM (inactive), the GI50 [26] was > 100 µM (inactive) and the GI50 [27] was > 100 µM (inactive). The GI50 [28] was > 100 µM (inactive), the GI50 [29] was > 100 µM (inactive) and the GI50 [30] was > 100 µM (inactive). The GI50 [31] was > 100 µM (inactive), the GI50 [32] was > 100 µM (inactive) and the GI50 [33] was > 100 µM (inactive). For the same molecule, the GI50 [34] was > 100 µM (inactive), the GI50 [35] was > 100 µM (inactive) and the GI50 [36] was > 100 µM (inactive). For the same molecule, the GI50 [37] was > 100 µM (inactive), the GI50 [38] was > 100 µM (inactive) and the GI50 [39] was > 100 µM (inactive). For the same molecule, the GI50 [40] was > 100 µM (inactive), the GI50 [41] was > 100 µM (inactive) and the GI50 [42] was > 100 µM (inactive). The GI50 [43] was > 100 µM (inactive), the GI50 [44] was > 100 µM (inactive) and the GI50 [45] was 49.1 µM (inactive). For the same molecule, the GI50 [46] was > 100 µM (inactive), the GI50 [47] was > 100 µM (inactive) and the GI50 [48] was > 100 µM (inactive). The GI50 [49] was > 100 µM (inactive), the GI50 [50] was > 100 µM (inactive) and the GI50 [51] was over 100 µM. For the same molecule, the GI50 [52] was > 100 µM (inactive), the GI50 [53] was > 100 µM (inactive) and the GI50 [54] was > 100 µM (inactive). The GI50 [55] was > 100 µM (inactive).
With `C[C@@H](c1ccccc1)N(CC#N)C1CCC[C@H]1O` (stereo partly drawn) the GI50 [1] was > 100 µM (inactive), the GI50 [2] was > 100 µM (inactive) and the GI50 [3] was > 100 µM (inactive). For the same molecule, the GI50 [4] was > 100 µM (inactive), the GI50 [56] was > 100 µM (inactive) and the GI50 [7] was > 100 µM (inactive). For the same molecule, the GI50 [8] was > 100 µM (inactive), the GI50 [10] was > 100 µM (inactive) and the GI50 [11] was > 100 µM (inactive). For the same molecule, the GI50 [12] was > 100 µM (inactive), the GI50 [13] was > 100 µM (inactive) and the GI50 [14] was > 100 µM (inactive). The GI50 [15] was > 100 µM (inactive), the GI50 [16] was > 100 µM (inactive) and the GI50 [17] was > 100 µM (inactive). For the same molecule, the GI50 [57] was > 100 µM (inactive), the GI50 [18] was > 100 µM (inactive) and the GI50 [19] was > 100 µM (inactive). For the same molecule, the GI50 [20] was > 100 µM (inactive), the GI50 [21] was > 100 µM (inactive) and the GI50 [22] was > 100 µM (inactive). For the same molecule, the GI50 [23] was > 100 µM (inactive), the GI50 [24] was > 100 µM (inactive) and the GI50 [25] was > 100 µM (inactive). For the same molecule, the GI50 [26] was > 100 µM (inactive), the GI50 [27] was > 100 µM (inactive) and the GI50 [28] was > 100 µM (inactive). The GI50 [29] was > 100 µM (inactive), the GI50 [30] was > 100 µM (inactive) and the GI50 [31] was > 100 µM (inactive). For the same molecule, the GI50 [32] was > 100 µM (inactive), the GI50 [34] was > 100 µM (inactive) and the GI50 [35] was > 100 µM (inactive). The GI50 [36] was > 100 µM (inactive), the GI50 [37] was > 100 µM (inactive) and the GI50 [38] was > 100 µM (inactive). For the same molecule, the GI50 [39] was > 100 µM (inactive), the GI50 [40] was > 100 µM (inactive) and the GI50 [42] was > 100 µM (inactive). The GI50 [43] was > 100 µM (inactive), the GI50 [44] was > 100 µM (inactive) and the GI50 [45] was > 100 µM (inactive). For the same molecule, the GI50 [46] was > 100 µM (inactive), the GI50 [47] was > 100 µM (inactive) and the GI50 [48] was > 100 µM (inactive). The GI50 [49] was > 100 µM (inactive), the GI50 [58] was > 100 µM (inactive) and the GI50 [50] was > 100 µM (inactive). For the same molecule, the GI50 [51] was over 100 µM, the GI50 [52] was > 100 µM (inactive) and the GI50 [53] was > 100 µM (inactive). The GI50 [54] was > 100 µM (inactive) and the GI50 [55] was > 100 µM (inactive).

From ChEMBL document CHEMBL1201862, “PubChem BioAssay data set” (2004)
